Measured values taken from PubChem BioAssay (NCI).
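Step 1: Grow cells in 96-well plates. Step 2: Expose to compound for 48 hours at 5 concentrations. Step 3: Interpolate endpoints linearly; if unreached, use highest concentration. At the GI50, growth is halved. TGI denotes the concentration required for complete inhibition of growth.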

Tests used:
Experiment in all cases: NCI tumour cell line growth inhibition, 48 h
K-562 leukemia = test system: K-562 leukemia
A498 renal = test system: A498 renal
EKVX NSCLC = test system: EKVX NSCLC
ACHN renal = test system: ACHN renal
SF-268 CNS = test system: SF-268 CNS
NCI-H23 lung = test system: NCI-H23 lung
MOLT-4 leukemia = test system: MOLT-4 leukemia
DU-145 prostate = test system: DU-145 prostate
T-47D breast = test system: T-47D breast
PC-3 prostate = test system: PC-3 prostate

SMILES	TGI (K-562 leukemia) [µM]	TGI (A498 renal) [µM]	TGI (EKVX NSCLC) [µM]	TGI (ACHN renal) [µM]	TGI (SF-268 CNS) [µM]	TGI (NCI-H23 lung) [µM]	TGI (MOLT-4 leukemia) [µM]	GI50 (MOLT-4 leukemia) [µM]	GI50 (K-562 leukemia) [µM]	GI50 (A498 renal) [µM]	GI50 (EKVX NSCLC) [µM]	GI50 (DU-145 prostate) [µM]	TGI (DU-145 prostate) [µM]	GI50 (SF-268 CNS) [µM]	GI50 (T-47D breast) [nM]	TGI (T-47D breast) [µM]	GI50 (NCI-H23 lung) [µM]	GI50 (PC-3 prostate) [µM]	TGI (PC-3 prostate) [µM]	GI50 (ACHN renal) [µM]
Cc1ccccc1NC(=O)C(=O)CC(=O)C1CCOC1=O (stereo not drawn)	> 100	> 100	> 100	> 100	> 100	> 100	–	–	–	–	–	–	–	–	–	–	–	–	–	–
CCOC(=O)C1=C(C)N(NC(=O)OC)C2(N)N(NC(=O)OC)C(C)=C(C(=O)OCC)C12C#N (stereo not drawn)	> 100	> 100	> 100	> 100	> 100	–	> 100	–	–	–	–	–	–	–	–	–	–	–	–	–
COc1cc2c(c(OC)c1OC)C(=O)c1c-2n(CCCN=[N+]=[N-])c(=O)c2cc([N+](=O)[O-])ccc12	> 100	54.1	> 100	–	> 100	> 100	> 100	> 100	> 100	14	> 100	> 100	> 100	29.8	> 100000	> 100	50.8	–	–	–
Cc1cc(Cl)cc2c1NC(=O)C2(O)CC(=O)c1ccc(F)cc1 (stereo not drawn)	–	–	> 100	> 100	> 100	> 100	–	–	–	–	–	–	–	–	–	–	–	–	–	–
Cc1cccc(Cl)c1NC(=O)c1cccc([N+](=O)[O-])c1O	> 100	> 100	> 100	> 100	96.5	85.1	> 100	–	–	–	–	–	–	–	–	–	–	–	–	–
OCCSCC/C(=N\N=C(/CCSCCO)c1ccccc1)c1ccccc1	> 100	–	> 100	> 100	> 100	> 100	> 100	–	–	–	–	–	–	–	–	–	–	–	–	–
O=C1c2ccccc2C(=O)c2sc(Nc3ccc(Cl)cc3)nc21	5.12	29.7	17.9	3.06	5.52	2.81	3.75	–	–	–	–	–	–	–	1800	7.52	–	2.49	10.5	–
CCOC(=O)N1CCc2cc(OC)c(OC)cc2/C1=C/c1ccc(OC)c(OC)c1	> 100	> 100	> 100	> 100	> 100	> 100	> 100	–	–	–	–	–	–	–	–	–	–	–	–	–
Cc1cc(S(=O)(=O)Nc2nc3ccccc3[nH]2)c(SCc2ccccc2)cc1Cl	> 100	> 100	> 100	> 100	> 100	> 100	85.6	36.4	66.3	> 100	> 100	> 100	> 100	> 100	–	–	54.9	> 100	> 100	32.8
O=C([CH-]C(=O)c1ccccc1)c1ccccc1.[CH3-].[CH3-].[CH3-].[Sn+4]	23.6	> 100	> 100	> 100	81.3	63.4	13.6	3.18	4.92	35.4	33.1	–	–	12.9	–	–	18.4	–	–	21
O=C1[C@@H]2C(c3ccncc3)=NO[C@@H]2C(=O)N1c1ccc(Cc2ccc(N3C(=O)[C@H]4C(c5ccncc5)=NO[C@H]4C3=O)cc2)cc1	> 100	> 100	> 100	> 100	> 100	> 100	> 100	–	–	–	–	–	–	–	–	–	–	–	–	–
C/C(CC(=O)Nc1ccccc1)=N\NC(N)=S	> 100	–	> 100	–	> 100	> 100	> 100	–	–	–	–	–	–	–	–	–	–	–	–	–
COC(=O)[C@@H]1[C@H](O)[C@H](C)[C@H](O)[C@H](C)/C=C\C=C(C)C(=O)Nc2c(C)c(OC(C)=O)c3c(c2O)C(=O)C(C)=C2OCOC(=C23)C(C)=C[C@@](C)(O)[C@H](O)[C@@H](C)[C@H]1OC(C)=O	> 100	–	> 100	> 100	> 100	> 100	> 100	–	–	–	–	–	> 100	–	–	–	–	–	> 100	–
CC1(C)Cc2nnsc2C2=C1C(=O)CCS2	> 100	–	> 100	> 100	> 100	> 100	> 100	–	–	–	–	–	–	–	–	–	–	–	–	–
Cc1cccc(C)c1NC(=O)CCCC(=O)C(C#N)c1ccc(Cl)cc1 (stereo not drawn)	> 100	> 100	> 100	> 100	> 100	> 100	> 100	–	–	–	–	–	–	–	–	–	–	–	–	–
NC1=NCC(c2ccccn2)C1c1ccc(F)cc1 (stereo not drawn)	> 100	> 100	> 100	> 100	> 100	> 100	> 100	–	–	–	–	–	–	–	–	–	–	–	–	–

SMILES	TGI (K-562 leukemia) [µM]	TGI (A498 renal) [µM]	TGI (EKVX NSCLC) [µM]	TGI (ACHN renal) [µM]	TGI (SF-268 CNS) [µM]	TGI (NCI-H23 lung) [µM]	TGI (MOLT-4 leukemia) [µM]	GI50 (MOLT-4 leukemia) [µM]	GI50 (K-562 leukemia) [µM]	GI50 (A498 renal) [µM]	GI50 (EKVX NSCLC) [µM]	GI50 (DU-145 prostate) [µM]	TGI (DU-145 prostate) [µM]	GI50 (SF-268 CNS) [µM]	GI50 (T-47D breast) [nM]	TGI (T-47D breast) [µM]	GI50 (NCI-H23 lung) [µM]	GI50 (PC-3 prostate) [µM]	TGI (PC-3 prostate) [µM]	GI50 (ACHN renal) [µM]
O=[N+]([O-])c1ccc2nc3ccscc-3c2c1	> 100	53.3	> 100	> 100	> 100	70.2	> 100	–	–	–	–	–	–	–	–	–	–	–	–	–
COc1ccc(C2N3CCCCC3[C@@H]3c4[nH]c5ccccc5c4CCN23)c(OC)c1 (stereo partly drawn)	> 100	30.1	> 100	55.2	53	58.7	49.9	–	–	–	–	–	–	–	–	–	–	–	–	–
Cc1cccc2cc3cccc(C(=O)NCCN(C)C)c3nc12	11.3	0.192	1.69	–	3.84	1.17	0.344	–	–	–	–	–	–	–	–	–	–	–	–	–
Cc1nnc2n1N=C(c1ccc(-c3ccc([N+](=O)[O-])cc3)o1)CS2	> 100	–	–	> 100	> 100	> 100	> 100	–	–	–	–	–	–	–	–	–	–	–	–	–
C=C[Si](C)(C)COC(=O)/C(C#N)=C/C=C/c1ccccc1	> 100	–	> 100	> 100	> 100	> 100	> 100	–	–	–	–	–	–	–	–	–	–	–	–	–
OCC#CCCCCOCC#Cc1ccccc1C#CCOCCCCC#CCO	65.6	34.3	41.3	58.7	> 100	48.8	> 100	14.8	22.3	4.35	17.8	17.6	41.3	37.4	–	–	23	40.6	98.4	21.7
NC(=NCCO)c1ccc(N2CCCN(c3ccc(C(N)=NCCO)cc3)CC2)cc1	–	–	–	> 100	–	> 100	–	–	–	–	–	–	–	–	> 100000	> 100	> 100	–	–	> 100
CN(C)CCC(=O)N1CCc2c([nH]c3ccccc23)C1c1cccnc1 (stereo not drawn)	> 100	> 100	> 100	> 100	> 100	> 100	> 100	–	–	–	–	–	–	–	–	–	–	–	–	–
NCCn1cnc2nc(NC(=O)c3ccccc3)[nH]c(=O)c21	> 100	> 100	> 100	> 100	> 100	> 100	> 100	–	–	–	–	–	–	–	–	–	–	–	–	–
C[CH2][Ge]([CH2]C)([CH2]C)[O]C(=O)C([O][Ge]([CH2]C)([CH2]C)[CH2]C)c1ccccc1 (stereo not drawn)	46.1	67.5	75.1	51.3	> 100	44.3	> 100	23.8	14.3	19.2	9.4	–	–	25.8	–	–	10.1	–	–	15
O=C(Nc1ccccc1[N+](=O)[O-])C(=O)C(C(=O)c1ccccc1-c1ccccc1)C1OC(=O)c2ccccc21 (stereo not drawn)	60.6	37.8	51	> 100	41	33.6	85.4	–	–	–	–	–	–	–	–	–	–	–	–	–
COC1C(O)CC(OC2CC(OC3CC(O[C@@H]4C(=O)c5c(cc6cc(OC7CC(OC8CC(O)C(O)C(C)O8)C(O)C(C)O7)c(C)c(O)c6c5O)C[C@H]4[C@H](OC)C(=O)[C@@H](O)[C@@H](C)O)OC(C)C3O)OC(C)C2O)OC1C (stereo partly drawn)	> 100	0.0827	8.06	> 100	> 94	< 0.0442	0.222	–	< 0.019	< 0.01	–	–	0.281	–	–	0.203	< 0.0189	–	–	–
O=C(Nc1nc(-c2ccccc2)cs1)c1cc(O)c(O)c(O)c1	> 100	28.2	–	56.3	31.9	51.5	19.4	1.57	2.72	5.41	–	6.41	> 100	2.72	2340	22.8	4.36	–	–	2.47
COc1cc(/C=C2\NC(=S)C3Cc4c(OC)c(C)c(OC)c(OC)c4C2N3C)c(OC)c(C)c1OC (stereo not drawn)	> 100	> 100	> 100	> 100	> 100	> 100	> 100	–	–	–	–	–	–	–	–	–	–	–	–	–
CC(=O)OCC1OC(n2c(=S)n(-c3ccccc3)c(=O)c3cc(Br)ccc32)C(OC(C)=O)C(OC(C)=O)C1OC(C)=O (stereo not drawn)	> 100	> 100	> 100	> 100	> 100	> 100	> 100	–	–	–	–	–	–	–	–	–	–	–	–	–
Cc1cc(Cl)ccc1N1C(=O)C(=O)C(c2nc3ccccc3o2)C(=O)C1=O	–	> 100	> 100	> 100	> 100	> 100	> 100	–	–	–	–	–	–	–	–	–	–	–	–	–
